Like-named read-outs stand apart in the source and are kept apart here.
Experiments:
SSTR4 [1] = biological target: T1, SSTR4 (Homo sapiens (Human), UniProt P31391); assay: Inhibition of forskolin stimulated cAMP in cells overexpressing SSTR4; type: cell-based; settings: inhibition of forskolin stimulated cAMP in CHO-K1 cells overexpressing SSTR4; read-out: SSTR4 Activity pEC50 (converted)
Procedure: Inhibition of Forskolin Stimulated cAMP in Cells Overexpressing SSTR4
This cell-based assay measures the ability of compounds to inhibit forskolin stimulated cAMP in CHO-K1 cells overexpressing SSTR4. CHO-K1 cells overexpressing SSTR4 (CHO-SSTR4) are purchased from DiscoveRx (product code 95-0059C2). The CHO-SSTR4 cells are maintained in F12K media with 10% Fetal Bovine Serum (Hyclone), 1% Pen/Strep (Life Technologies), and 800 μg/mL G418 (Life Technologies). […] The next day, the culture media is removed from the cells and the cells are washed (added then removed) with Krebs Ringer Buffer (ZenBio, KRB-1000 mL). […] The cells are incubated in 10 μL compound/stimulation buffer for 30 minutes at room temperature. Cellular cAMP levels are detected with a HTRF LANCE Ultra cAMP kit (Perkin Elmer, catalog number TRF0264).
The assay is performed in accordance with the manufacturer's instructions. […] of diluted Eu—W8044 labeled streptavidin (dilution: 1:50 in cAMP Detection Buffer) is added to each well. Then 5 μL of diluted biotin cAMP (dilution: 1:150 in cAMP Detection Buffer) is added to each well. The plates are covered and allowed to incubate for 60 minutes at room temperature on a shaker. […] The pEC50 values are generated using Activity Base for Screening Data Management.

SSTR4 [2] = biological target: T1, SSTR4; assay: SSTR4 I-125 somatostatin competition binding assay; settings: for IC50: membranes from CHO-K1 cells overexpressing SSTR4, read-out: SSTR4 Binding pIC50 (converted); for SSTR4 Binding pIC50: membranes from CHO-K1 cells overexpressing SSTR4
Description: The scintillator sheets are melted to filters using a heat block.

SSTR1 [3] = biological target: T2, SSTR1 (Homo sapiens (Human), UniProt P30872); assay: biochemical;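 also: binding assay on CHO-K1 cell membranes overexpressing SSTR1, incubated 60 min at room temperature, bound fraction collected on filters and read by scintillation counting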
T2 sequence (P30872 whole entry): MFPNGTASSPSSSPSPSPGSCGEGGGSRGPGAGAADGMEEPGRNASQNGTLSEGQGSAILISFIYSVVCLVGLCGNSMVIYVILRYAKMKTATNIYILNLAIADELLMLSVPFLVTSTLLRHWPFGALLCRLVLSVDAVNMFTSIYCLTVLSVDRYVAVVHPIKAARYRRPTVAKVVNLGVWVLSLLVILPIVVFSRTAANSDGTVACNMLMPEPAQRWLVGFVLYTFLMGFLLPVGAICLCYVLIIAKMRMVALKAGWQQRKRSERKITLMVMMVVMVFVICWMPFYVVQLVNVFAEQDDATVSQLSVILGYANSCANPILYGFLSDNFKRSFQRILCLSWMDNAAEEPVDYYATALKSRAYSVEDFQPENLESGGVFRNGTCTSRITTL
Procedure: (§1) Membranes from CHO-K1 cells overexpressing SSTR1 are purchased from Perkin Elmer (catalog number ES-520-M400UA). […] Then 10 μg of SSTR1 membranes in 50 μL assay buffer are added per well. The plate is incubated for 60 minutes at room temperature. […] The contents of the assay plate are transferred to filters with a TomTech harvester and washed 5 times with 20 mM HEPES, 100 mM NaCl. […] The scintillator sheets are melted to the filters using a heat block. The filters are then read in a MicroBeta scintillation counter. Binding Ki curves are generated using Activity Base for Screening Data Management and the results are reported as pIC50.

SSTR1 [4] = biological target: T2, SSTR1
Procedure: as §1

T1 sequence (P31391 whole entry): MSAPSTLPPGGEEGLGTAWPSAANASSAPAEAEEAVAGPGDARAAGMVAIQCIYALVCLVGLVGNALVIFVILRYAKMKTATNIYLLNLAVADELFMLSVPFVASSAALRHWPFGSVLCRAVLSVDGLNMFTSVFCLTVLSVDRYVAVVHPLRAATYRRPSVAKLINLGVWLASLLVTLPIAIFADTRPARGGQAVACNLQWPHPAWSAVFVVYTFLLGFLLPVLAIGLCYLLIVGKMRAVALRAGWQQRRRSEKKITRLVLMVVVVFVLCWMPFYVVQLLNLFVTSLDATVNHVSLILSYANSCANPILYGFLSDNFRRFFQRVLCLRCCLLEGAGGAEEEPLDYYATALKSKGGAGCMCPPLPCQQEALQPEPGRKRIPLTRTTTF

| Structure (SMILES) | EC50 (SSTR4 [1]) [nM] | IC50 (SSTR4 [2]) [nM] | IC50 (SSTR1 [3]) [µM] | SSTR4 Binding pIC50 (SSTR4 [2]) | IC50 (SSTR1 [4]) [µM] |
| --- | --- | --- | --- | --- | --- |
| C[C@@H]1CN(C)CC[C@H]1NC(=O)C1(Cc2ccc(F)cc2)CC1 (racemic) [Example 10, N-(trans-1,3-dimethylpiperidin-4-yl)-1-(4-fluorobenzyl)cyclopropane-1-carboxamide] | 70.8 | 513 | 15.5 |  |  |
| Cc1cccc(CC2(C(=O)N[C@@H]3CN(C)C[C@H]3C(C)C)CC2)c1 (racemic) [Example 3, N-(trans-4-isopropyl-1-methylpyrrolidin-3-yl)-1-(3-methylbenzyl)cyclopropane-1-carboxamide] | 12.6 | 91.2 | 5.37 |  |  |
| C[C@H]1CNCC[C@@H]1NC(=O)C(F)(F)Oc1ccc(F)cc1 [Example 58, 2,2-difluoro-2-(4-fluorophenoxy)-N-((3S,4S)-3-methylpiperidin-4-yl)acetamide] | 5.01 |  |  | 6.77 | 46.8 |
| N#Cc1ccccc1OC(F)(F)C(=O)NC1CCNCC1 [Example 32, 2-(2-cyanophenoxy)-2,2-difluoro-N-(piperidin-4-yl)acetamide] | 50.1 |  |  | 5.49 | > 50.1 |
| C[C@H]1CNCC[C@@H]1NC(=O)C(F)(F)Oc1ccccc1F [Example 54, 2,2-difluoro-2-(2-fluorophenoxy)-N-((3S,4S)-3-methylpiperidin-4-yl)acetamide] | 21.4 |  |  | 6.55 | > 50.1 |
| COc1cccc(CC2(C(=O)N[C@H]3CCNC[C@@H]3F)CC2)c1 [Example 46, N-((3S,4S)-3-fluoropiperidin-4-yl)-1-(3-methoxybenzyl)cyclopropane-1-carboxamide] | 11.7 |  |  | 7.29 | > 50.1 |
| C[C@H]1CN(C)CC[C@@H]1NC(=O)C1(Cc2ccc(F)cc2)CC1 [Example 35, N-((3S,4S)-1,3-dimethylpiperidin-4-yl)-1-(4-fluorobenzyl)cyclopropane-1-carboxamide] | 26.3 |  |  | 6.66 | 5.89 |
| Cc1ccccc1OC(F)(F)C(=O)N[C@H]1CCNC[C@@H]1C [Example 56, 2,2-difluoro-N-((3S,4S)-3-methylpiperidin-4-yl)-2-(o-tolyloxy)acetamide] | 1.7 |  |  | 7.14 | 44.7 |
| O=C(NC1CCNCC1)C(F)(F)Oc1ccccc1 [Example 14, 2,2-difluoro-2-phenoxy-N-(piperidin-4-yl)acetamide] | 67.6 |  |  | 6.39 | > 50.1 |
| C[C@H]1C[C@@H](NC(=O)C(F)(F)Oc2ccccc2)CCN1 [Example 48, 2,2-difluoro-N-((2S,4S)-2-methylpiperidin-4-yl)-2-phenoxyacetamide] | 91.2 |  |  | 5.43 | > 50.1 |
| C[C@@H]1C[C@H](NC(=O)C2(CN(C)c3cccc(Cl)n3)CC2)CCN1C [Example 41, 1-(((6-chloropyridin-2-yl)(methyl)amino)methyl)-N-((2R,4R)-1,2-dimethylpiperidin-4-yl)cyclopropane-1-carboxamide] | 56.2 |  |  | 6.53 | > 50.1 |
| Cc1ccccc1CC1(C(=O)N[C@@H]2CCN(C)C[C@H]2C)CC1 (racemic) [Example 12, N-(trans-1,3-dimethylpiperidin-4-yl)-1-(2-methylbenzyl)cyclopropane-1-carboxamide] | 57.5 | 891 | 15.8 |  |  |
